Data published in patent publication US8940915B2, “Solvent for recovery of maleic anhydride from a gas stream” (Huntsman Petrochemical LLC, priority 2011, dated 2015).
Values after ≈ are worked out from the molar mass of the structure shown.

What was measured:
[1] = Solubility of fumaric acid in the solvent; assay type: physicochemical; conditions: fumaric acid dissolved in dibutyl adipate, at 60° C.
[2] = Solubility of maleic anhydride in the solvent; assay type: physicochemical; conditions: maleic anhydride dissolved in dibutyl adipate, at 60° C.
Solubility in water = assay type: physicochemical; conditions: at 25° C.

- Solubility of Fumaric Acid [1]: about 0.15 wt % at 60 °C
- Solubility of Maleic Anhydride [2]: >20 wt % at 60 °C
- solubility (Solubility in water): 35 µg/mL (≈ 135 µM)
Compound: CCCCOC(=O)CCCCC(=O)OCCCC [dibutyl adipate, Di-n-butyl adipate]
- Toxicity (in words) (Toxicity statement): neither dibutyl adipate nor any of its hydrolysis products is toxic
